This note sets out measurements from patent US7416848B2, “DNA encoding SNORF25 receptor” (H. Lundbeck A/S, priority 1999, dated 2008).

The target of one assay is T1, SNORF25 receptor (Rattus norvegicus, UniProt Q7TQN8).
T1 construct: the entire coding region was amplified from Rin14b cell line cDNA and rat genomic DNA; expressed in transfected cells; host or cells: CHO cells, transient (electroporation)
T1 sequence (Q7TQN8 with tags, fused parts or gaps limits assumed): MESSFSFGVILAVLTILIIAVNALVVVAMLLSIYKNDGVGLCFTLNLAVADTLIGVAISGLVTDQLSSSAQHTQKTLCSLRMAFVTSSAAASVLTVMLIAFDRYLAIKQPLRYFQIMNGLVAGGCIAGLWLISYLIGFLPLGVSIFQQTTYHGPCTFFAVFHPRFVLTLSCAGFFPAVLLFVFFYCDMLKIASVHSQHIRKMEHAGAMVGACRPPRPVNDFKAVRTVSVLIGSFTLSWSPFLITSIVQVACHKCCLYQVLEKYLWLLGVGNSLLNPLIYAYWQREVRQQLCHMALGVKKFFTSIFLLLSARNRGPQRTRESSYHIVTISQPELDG
The experiment in a line: IP release in SNORF25-transfected CHO cells. It counts as cell-based. As to the method:
In a 96 well microplate format assay, cells are plated at a density of 70,000 cells per well and allowed to incubate for 24 hours. The cells are then labeled with 0.5 μCi [^3H]-myo-inositol overnight at 37° C., 5% CO2. Immediately before the assay, the medium is removed and replaced with 90 μL of PBS containing 10 mM LiCl. The plates are then incubated for 15 min at 37° C., 5% CO2. Following the incubation, the cells are challenged with agonist (10 μl/well; 10× concentration) for 30 min at 37° C., 5% CO2. The challenge is terminated by the addition of 100 μL of 50% v/v trichloroacetic acid, followed by incubation at 4° C. for greater than 30 minutes. Total IPs are isolated from the lysate by ion exchange chromatography. Briefly, the lysed contents of the wells are transferred to a Multiscreen HV filter plate (Millipore) containing Dowex AG1-X8 (200–400 mesh, formate form). The filter plates are prepared adding 100 μL of Dowex AG1-X8 suspension (50% v/v, water: resin) to each well. The filter plates are placed on a vacuum manifold to wash or elute the resin bed. Each well is first washed 2 times with 200 μl of 5 mM myo-inositol. Total [^3H]inositol phosphates are eluted with 75 μl of 1.2M ammonium formate/0.1M formic acid solution into 96-well plates. 200 μL of scintillation cocktail is added to each well, and the radioactivity is determined by liquid scintillation counting. […]

In another assay the target is T2, SNORF25 (Homo sapiens, UniProt Q8TDV5).
T2 sequence (Q8TDV5 1-335): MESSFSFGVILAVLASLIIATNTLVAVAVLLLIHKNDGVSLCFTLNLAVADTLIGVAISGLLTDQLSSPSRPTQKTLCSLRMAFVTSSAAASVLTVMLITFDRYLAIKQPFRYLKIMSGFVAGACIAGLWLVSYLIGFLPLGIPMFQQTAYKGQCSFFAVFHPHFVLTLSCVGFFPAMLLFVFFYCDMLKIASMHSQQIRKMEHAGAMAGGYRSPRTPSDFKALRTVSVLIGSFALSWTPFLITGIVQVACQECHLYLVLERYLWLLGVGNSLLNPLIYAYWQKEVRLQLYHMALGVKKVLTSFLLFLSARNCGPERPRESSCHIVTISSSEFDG
The experiment in a line: Stimulation of cAMP release by CHO cells stably expressing hSNORF25 receptors. It counts as cell-based. Details: expressed in transfected cells. Here is the method:
CHO cells are grown on 150 mm plates in HAM's F-12 medium with supplements (10% bovine calf serum, 4 mM L-glutamine and 100 units/ml penicillin/100 μg/ml streptomycin) at 37° C., 5% CO2. Stock plates of CHO cells are trypsinized and split 1:8 every 3–4 days.
Heterologous DNA can be stably incorporated into host cells, causing the cell to perpetually express a foreign protein. Methods for the delivery of the DNA into the cell are similar to those described above for transient expression but require the co-transfection of an ancillary gene to confer drug resistance on the targeted host cell. The ensuing drug resistance can be exploited to select and maintain cells that have taken up the DNA. An assortment of resistance genes are available including but not restricted to neomycin, kanamycin, and hygromycin. For the purposes of studies concerning the receptor of this invention, stable expression of a heterologous receptor protein is typically carried out in, mammalian cells including but not necessarily restricted to, CHO, HEK293, LM(tk−), etc.
(§1) The receptor-mediated stimulation or inhibition of cyclic AMP (cAMP) formation may be assayed in cells expressing the receptors. According to one method, cells are plated in 96-well plates or other vessels and preincubated in a buffer such as HEPES buffered saline (NaCl (150 mM), CaCl2 (1mM), KCl (5 mM), glucose (10 mM)) supplemented with a phosphodiesterase inhibitor such as 5 mM theophylline, with or without protease inhibitor cocktail (For example, a typical inhibitor cocktail contains 2 μg/ml aprotinin, 0.5 mg/ml leupeptin, and 10 μg/ml phosphoramidon.) for 20 min at 37° C., in 5% CO2. Test compounds are added with or without […] and incubated for an additional 10 min at 37° C. The medium is then aspirated and the reaction stopped by the addition of 100 mM HCl or other methods. The plates are stored at 4° C. for 15 min, and the cAMP content in the stopping solution is measured by radioimmunoassay. Radioactivity may be quantified using a gamma counter equipped with data reduction software. Specific modifications may be performed to optimize the assay for the receptor or to alter the detection method of cAMP.
as §1, with “According” for “The receptor-mediated stimulation or inhibition of cyclic AMP (cAMP) formation may be assayed in cells expressing the receptors. According”, “a second” for “one”, “washed 2 times with” for “plated in 96-well plates or other vessels and preincubated in a buffer such as”, “saline, as described above, and incubated overnight. On the day of the experiment, cells are washed 2 times with HEPES” for “saline (NaCl (150 mM), CaCl2 (1mM), KCl (5 mM), glucose (10 mM))”
Several other closely related analogues of PAF namely Lyso-PAF with different carbon chains also stimulated cAMP.

The EC50 is the concentration needed to bring the measured effect to its halfway point. Read a low EC50 as a more potent agent. Take `CC1=C(/C=C/C(C)=C/C=C/C(C)=C/C(=O)O)C(C)(C)CCC1` [ATRA, all-trans-retinoic acid]: at SNORF25 receptor, the IP release entry is reported as “not IP release”. For the same compound, on SNORF25 (cAMP release, SNORF25 stable CHO cells (FIG. 11B)), the “potency lower than PAF(C18)” value is recorded as ~3 fold. Also, the “% of PAF(C18) Response” value at SNORF25 (maximum response as % of maximum response produced by PAF(C18) (taken as 100%)) came out at 105%. In addition, on SNORF25 (mean ± S.E.M., at least 3 experiments, CHO cells stably expressing hSNORF25), the midpoint of the response, the EC50, lay at 1.44 ± 0.652 µM.
